For data set [1] the following is noted: at 20° C.; cited from earlier work.
A short description of data set [2]: Chemical stability of ITF2357 solutions (degradation on storage). The data set is classed as physicochemical. The protocol: For example, solubility of ITF2357 in phosphate buffers at pH 2, 4.5, 6 and 8 is about 1.13-2.88-0.77 and 0.05 mg/mL respectively. Thus, it is technically possible to prepare aqueous solutions of ITF2357, having concentrations, e.g., between 0.02 and 0.3% w/v, intended for oral administration. However, because of the poor Givinostat solubility, large volume of an oral solution formulation would need to be administered to allow administration of effective drug doses and this pose patient compliance issues. […] In a preferred embodiment, the suspension according to the invention further comprising at least a buffering agent.

The next data set relates to serum TNFα. The conditions noted are these: mice, oral administration of 1.0 to 10 mg/kg; cited from earlier work.
Data set [3] in a line: Solubility of Givinostat (ITF2357) in water, buffers and aqueous vehicles. The data set is classed as physicochemical. The method, then:
Solubility of Givinostat was tested in aqueous vehicles at pH 6, containing Phosphate buffer. Tween 20 as wetting agent and either Sorbitol or Sucrose (40% w/v). To this aim, an amount of Givinostat sufficient to ensure saturation was mixed with 15 mL of each vehicle in separate vials. These vials were shaken at 25° C.±PC for at least 24 hours in order to obtain equilibrium. The saturated solution was then separated from the excess solid by filtration and Givinostat (ITF2357) was quantitated in the filtrate by UV-Vis spectrophotometric technique.
In table 4 solubility value determined on ITF 2357 saturated solution in different buffer at pH 4.5 are reported.
Solubility of ITF2357 determined in suspension vehicles having compositions as described in Example 1, thus containing Sorbitol at 40% w/v and Tartrate buffer, at different pH (pH range from 4 to 7 adjusted with Tartaric Acid or Sodium Hydroxide) are shown in Table 5.

A further data set deals with IL-1β. The conditions noted are these: LPS-stimulated cultured human PBMCs; read-out: concentration reducing by 50% the release of intracellular interleukin IL-1β; cited from earlier work.
The nature of data set [4]: Solubility of Givinostat (ITF2357) in water, buffers and aqueous vehicles. The conditions noted are these: phosphate buffer. The data set is classed as physicochemical.
For the next data set, the system named is interferon-γ (IFNγ). The conditions noted are these: LPS-stimulated cultured human PBMCs; read-out: concentration reducing by 50% the production of IFNγ; cited from earlier work.
The test system of the next data set is serum IFNγ. As to conditions: mice, oral administration of 1.0 to 10 mg/kg; cited from earlier work.

≈ marks a conversion by molar mass, not a printed value. Read-outs that look alike come from different tables or passages of the source.

As for `OC[C@H]1O[C@@](CO)(O[C@H]2O[C@H](CO)[C@@H](O)[C@H](O)[C@H]2O)[C@@H](O)[C@@H]1O` [Sucrose], in data set [1], the “parts of water in which 1 part dissolves” value was 0.3 parts of water.
For the molecule `CCN(CC)Cc1ccc2cc(COC(=O)Nc3ccc(C(=O)NO)cc3)ccc2c1` [ITF2357, Givinostat], the degradation of solution result in data set [2] (phosphate buffer pH 2, 6 days at 40° C.) is listed as “about 6.3%”; in data set [2] (phosphate buffer pH 4.5, 6 days at 40° C.) it was ~0.8%; in data set [2] (phosphate buffer pH 6, 6 days at 40° C.), ~0.5%; in data set [2] (phosphate buffer pH 8, 6 days at 40° C.), ~2.1%. For the same molecule, the “reduction of LPS-induced serum TNFα” value with serum TNFα was “more than 50%”. Further, the solubility (usually how much of the substance goes into solution per volume) amounted to 5100 µg/mL (≈ 12100 µM) in data set [3] (acetate buffer, pH 4.5, aqueous buffer, thermodynamic from solid, Acetate buffer pH 4.5, read-out: ITF2357 solubility); 2340 µg/mL (≈ 5550 µM) in data set [3] (aqueous vehicle, 25 °C, pH 6, aqueous with cosolvent or surfactant or cyclodextrin, thermodynamic from solid, Phosphate buffer pH 6, Tween 20, Sorbitol 10% (w/v), 25° C., read-out: ITF2357 Solubility); 2110 µg/mL (≈ 5000 µM) in data set [3] (aqueous vehicle, 25 °C, pH 6, aqueous with cosolvent or surfactant or cyclodextrin, thermodynamic from solid, Phosphate buffer pH 6, Tween 20, Sorbitol 20% (w/v), 25° C., read-out: ITF2357 Solubility); 2020 µg/mL (≈ 4790 µM) in data set [3] (aqueous vehicle, 25 °C, pH 6, aqueous with cosolvent or surfactant or cyclodextrin, thermodynamic from solid, Phosphate buffer pH 6, Tween 20, Sorbitol 30% (w/v), 25° C., read-out: ITF2357 Solubility); 1930 µg/mL (≈ 4580 µM) in data set [3] (aqueous vehicle, 25 °C, pH 6, aqueous with cosolvent or surfactant or cyclodextrin, thermodynamic from solid, Phosphate buffer pH 6, Tween 20, Sorbitol 40% (w/v), 25° C., read-out: ITF2357 Solubility); 3880 µg/mL (≈ 9190 µM) in data set [3] (aqueous vehicle, 25 °C, pH 6, aqueous with cosolvent or surfactant or cyclodextrin, thermodynamic from solid, Phosphate buffer pH 6, Tween 20, Sucrose 40% (w/v), 25° C., read-out: ITF2357 Solubility). The solubility was 2880 µg/mL (≈ 6830 µM) in data set [3] (phosphate buffer pH 4.5); ~2880 µg/mL (≈ 6830 µM) in data set [3] (phosphate buffer, pH 4.5, aqueous buffer, thermodynamic from solid, phosphate buffer pH 4.5, read-out: solubility); ~50 µg/mL (≈ 119 µM) in data set [3] (phosphate buffer, pH 8, aqueous buffer, phosphate buffer pH 8, read-out: solubility); ~2500 µg/mL (≈ 5930 µM) in data set [3] (purified water, water, purified water, read-out: solubility); 210 µg/mL (≈ 498 µM) in data set [3] (suspension vehicle, pH 4, aqueous with cosolvent or surfactant or cyclodextrin, thermodynamic from solid, Tartrate buffer pH = 4.0, Tween 20, Sorbitol 40% w/v, read-out: ITF2357 solubility); 150 µg/mL (≈ 356 µM) in data set [3] (suspension vehicle, pH 5, aqueous with cosolvent or surfactant or cyclodextrin, thermodynamic from solid, Tartrate buffer pH = 5.0, Tween 20, Sorbitol 40% w/v, read-out: ITF2357 solubility). Moreover, the solubility in data set [3] (suspension vehicle, pH 5.5, aqueous with cosolvent or surfactant or cyclodextrin, thermodynamic from solid, Tartrate buffer pH = 5.5, Tween 20, Sorbitol 40% w/v, read-out: ITF2357 solubility) was 160 µg/mL (≈ 380 µM); in data set [3] (suspension vehicle, pH 6, aqueous with cosolvent or surfactant or cyclodextrin, thermodynamic from solid, Tartrate buffer pH = 6.0, Tween 20, Sorbitol 40% w/v, read-out: ITF2357 solubility), 150 µg/mL (≈ 356 µM); in data set [3] (suspension vehicle, pH 6.5, aqueous with cosolvent or surfactant or cyclodextrin, thermodynamic from solid, Tartrate buffer pH = 6.5, Tween 20, Sorbitol 40% w/v, read-out: ITF2357 solubility), 160 µg/mL (≈ 380 µM); in data set [3] (suspension vehicle, pH 7, aqueous with cosolvent or surfactant or cyclodextrin, thermodynamic from solid, Tartrate buffer pH = 7.0, Tween 20, Sorbitol 40% w/v, read-out: ITF2357 solubility), 150 µg/mL (≈ 356 µM); in data set [3] (tartrate buffer, pH 4.5, aqueous buffer, thermodynamic from solid, Tartrate buffer pH 4.5, read-out: ITF2357 solubility), 230 µg/mL (≈ 546 µM); in data set [4] (pH 2, aqueous buffer, phosphate buffer pH 2), ~1130 µg/mL (≈ 2680 µM). In addition, the solubility in data set [4] (pH 6, aqueous buffer, phosphate buffer pH 6) is ~770 µg/mL (≈ 1830 µM). The IC50 is 12 nM in the data set on IL-1β and 25 nM with interferon-γ (IFNγ). The “reduction of LPS-induced serum IFNγ” value in the data set with serum IFNγ is “more than 50%”.

(Values after US10688047B2, “Physically and chemically stable oral suspensions of givinostat” (ITALFARMACO SPA, priority 2015, dated 2020).)
